# Data as given in BindingDB's records for doi:10.1007/s10822-022-00478-x (Roche Innovation Center Basel, F. Hoffmann-La Roche Ltd., 2022).
# Target: cAMP and cAMP-inhibited cGMP 3',5'-cyclic phosphodiesterase 10A (Homo sapiens, UniProt Q9Y233)
# Assay: PDE10A assay
# Procedure, shortened: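 Scintillation proximity readout of [3H]cGMP hydrolysis (50 nM final substrate, 15 min) by 2 ng/well human PDE10A after 15 min compound preincubation at RT, pH 7.5 with MgCl2. Four-parameter logistic fit gave IC50, reported as pIC50.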
row,Compound,IC50 [nM]
1,"CN(C)C(=O)c1cc(NC(=O)c2nc(C3CC3)ccc2Nc2cncnc2)n(C)n1 [Roche-Dataset for PDE10A, Compound 404]",444
2,"Cn1nc(N2CCCC2)nc1CCc1nc2c(F)cc(F)cn2n1 [Roche-Dataset for PDE10A, Compound 407]",628
3,"CN(C)C(=O)c1nn(C)cc1C(=O)Nc1ccn2cc(-c3ccccc3)nc2n1 [Roche-Dataset for PDE10A, Compound 409]",63
4,"Cn1ncc(S(C)(=O)=O)c1C(=O)Nc1ccc2cc(-c3ccccc3)nn2c1 [Roche-Dataset for PDE10A, Compound 410]",179
5,"COc1nc(OCc2nc(-c3ccccc3)cn2C)nc2ccccc12 [Roche-Dataset for PDE10A, Compound 411]",61
6,"O=C(Nc1ccnc(Cl)c1)c1cn(-c2ccc3ccccc3n2)cn1 [Roche-Dataset for PDE10A, Compound 414]",302
7,"Cn1cc(S(C)(=O)=O)c(C(=O)Nc2ccc3cc(-c4ccccc4)nn3c2)n1 [Roche-Dataset for PDE10A, Compound 416]",88
8,"O=C(Nc1cc(Cl)ncn1)c1ccc2cc(-c3ccccc3)nn2c1 [Roche-Dataset for PDE10A, Compound 419]",249
9,"O=C(Nc1ccn2nc(-c3ccccc3)nc2c1)c1onc2ccccc12 [Roche-Dataset for PDE10A, Compound 420]",194
10,"CCc1nc(C)c(C(=O)Nc2cc3nc(-c4ccccc4)[nH]c3cc2C(=O)O)o1 [Roche-Dataset for PDE10A, Compound 424]",1340
11,"Cn1nc(N2CCCC2)nc1/C=C/c1nc(N2CCCC2)n(C)n1 [Roche-Dataset for PDE10A, Compound 429]",429
12,"CNC(=O)c1cc2[nH]c(-c3ccccc3)nc2cc1NC(=O)c1cc(C)n[nH]1 [Roche-Dataset for PDE10A, Compound 430]",355
13,"Cn1ncc(Cl)c1C(=O)Nc1ccn2nc(-c3ccccc3)nc2c1 [Roche-Dataset for PDE10A, Compound 433]",208
14,"O=C(Nc1ccn2nc(-c3ccccc3)nc2c1)c1conc1C(=O)NC1CC1 [Roche-Dataset for PDE10A, Compound 437]",150
15,"Cn1ncc(C(=O)N2CCC2)c1C(=O)Nc1cc(-c2ccccc2Cl)nn1C1CCCC1 [Roche-Dataset for PDE10A, Compound 438]",879
16,"CNC(=O)c1cc2[nH]c(-c3ccccc3)nc2cc1NC(=O)c1c(C(=O)N2CCC2)cnn1C [Roche-Dataset for PDE10A, Compound 439]",69
17,"Cc1ncc(C)n2nc(CCc3nc(N4CC[C@@H](C)C4)nn3C)nc12 [Roche-Dataset for PDE10A, Compound 447]",28
18,"Cc1cnccc1NC(=O)c1ccc2cc(-c3ccccc3)nn2c1 [Roche-Dataset for PDE10A, Compound 448]",563
19,"O=C(NCCN1CCCc2ccccc21)c1nc(C2CC2)cnc1Nc1cncnc1 [Roche-Dataset for PDE10A, Compound 449]",46
20,"O=C(NCCN1CCc2ccccc2C1=O)c1nc(C2CC2)cnc1Nc1cncnc1 [Roche-Dataset for PDE10A, Compound 451]",574
21,"CNC(=O)c1cc2[nH]c(-c3ccccc3)nc2cc1NC(=O)c1c(C(=O)N2CCOCC2)cnn1C [Roche-Dataset for PDE10A, Compound 453]",195
22,"O=C(Nc1ccn2nc(-c3ccccc3)nc2c1)c1cc(Cl)ccn1 [Roche-Dataset for PDE10A, Compound 454]",76
23,"Cc1ncc(C)n2nc(CCc3nc(C)n(-c4ccccc4)n3)nc12 [Roche-Dataset for PDE10A, Compound 456]",748
24,"Cn1ncc(C(=O)N2CCOCC2)c1C(=O)N[C@@H]1CCn2cc(-c3ccccc3Cl)nc2C1 [Roche-Dataset for PDE10A, Compound 457]",2410

# Now those with a lower IC50, led by results:
row,IC50 [nM],Compound
1,20,"Cc1cnc(C)n2nc(/C=C/c3nc(N4CCCC4)n(C)n3)nc12 [Roche-Dataset for PDE10A, Compound 443]"
2,18,"Cc1cnc(C)n2nc(CCc3nc(N4CCCC4)nn3C3CC3)nc12 [Roche-Dataset for PDE10A, Compound 436]"
3,16,"Cn1ncc(C(N)=O)c1C(=O)Nc1ccn2nc(-c3ccccc3)nc2c1 [Roche-Dataset for PDE10A, Compound 401]"
4,16,"Cn1ncc(C(=O)N2CCC2)c1C(=O)Nc1ccc2nc(N3CCOCC3)nn2c1 [Roche-Dataset for PDE10A, Compound 412]"
5,15,"CC(C)OC(=O)c1c(C(=O)Nc2ccn3nc(-c4ccccc4)nc3c2)cnn1C [Roche-Dataset for PDE10A, Compound 428]"
6,14,"CNC(=O)c1cc2[nH]c(-c3ccccc3)nc2cc1NC(=O)c1ccnn1C [Roche-Dataset for PDE10A, Compound 452]"
7,12,"Cc1c(Br)cn2nc(/C=C/c3nc(N4CCCC4)nn3C)nc2c1C [Roche-Dataset for PDE10A, Compound 406]"
8,12,"Cc1ncc(C)n2nc(/C=C/c3nc(-c4cccn4C)nn3C)nc12 [Roche-Dataset for PDE10A, Compound 440]"
9,8.81,"CN(C)C(=O)c1cnn(C)c1C(=O)Nc1ccn2nc(-c3ccnc(S(C)(=O)=O)c3)nc2c1 [Roche-Dataset for PDE10A, Compound 421]"
10,7.71,"Cn1cc(-c2ccccc2)nc1COc1nc2ccccc2nc1N1CCCC1 [Roche-Dataset for PDE10A, Compound 403]"
11,7.54,"Cc1nc(C(F)(F)F)n2nc(CCc3nc(N4CCCC4)nn3C)nc2c1C [Roche-Dataset for PDE10A, Compound 432]"
12,5,"Cn1ncc(C(=O)N2CCOCC2)c1C(=O)Nc1cc2nc(N3CCCC3)nn2cn1 [Roche-Dataset for PDE10A, Compound 426]"
13,4.83,"Cn1ncc(C(=O)N2CCC2)c1C(=O)Nc1cc2nc(N3CCOCC3)nn2cn1 [Roche-Dataset for PDE10A, Compound 422]"
14,3.43,"O=C(Nc1ccnn1-c1ccccn1)c1nc(C2CC2)ccc1Nc1cncnc1 [Roche-Dataset for PDE10A, Compound 435]"
15,3.41,"O=C(Nc1ccn(Cc2ccccc2)n1)c1nc(C2CC2)ccc1Nc1cncnc1 [Roche-Dataset for PDE10A, Compound 446]"
16,3.25,"Cn1ncc(C(=O)N2CCCC2)c1C(=O)Nc1ccn2nc(N3CCOCC3)nc2c1 [Roche-Dataset for PDE10A, Compound 402]"
17,2.62,"CN(c1nc2cc(NC(=O)c3c(C(=O)N4CCOCC4)cnn3C)ccn2n1)C1CC1 [Roche-Dataset for PDE10A, Compound 418]"
18,2.45,"Cn1ncc(C(=O)N2CCOCC2)c1C(=O)Nc1ccc2nc(N3CCCC3)nn2c1 [Roche-Dataset for PDE10A, Compound 415]"
19,2.22,"Cn1ncc(C(=O)N2CCC2)c1C(=O)N[C@@H]1CCn2cc(-c3ccccc3Cl)nc2C1 [Roche-Dataset for PDE10A, Compound 408]"
20,0.87,"CN(c1nc2cc(NC(=O)c3c(C(=O)N4CCC4)cnn3C)ccn2n1)C1CC1 [Roche-Dataset for PDE10A, Compound 450]"
21,0.81,"CN(C)C(=O)c1cnn(C)c1C(=O)Nc1cc2nc(-c3ccccc3)nn2cn1 [Roche-Dataset for PDE10A, Compound 442]"
22,0.24,"O=C(Nc1ccc2[nH]c(-c3ccccc3)nc2c1)c1nc(C2CC2)ccc1Nc1cncnc1 [Roche-Dataset for PDE10A, Compound 423]"
